Assay results as given in US11878965B2, “Inhibitors of peptidylarginine deiminases” (Gilead Sciences, Inc., priority 2020, dated 2024).

Molecular target: human PAD4 (Homo sapiens (Human), UniProt Q9UM07)
Assay: In Vitro PAD4 BAEE Biochemical Assay
Settings: geometric mean of multiple experiments
How it was run: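 Recombinant human PAD4 (His-SUMO tag removed, E. coli-expressed), 5 nM, preincubated with compound and 2 mM CaCl2 30 min at 25 °C in MOPS pH 7.6 with DTT; 3 mM BAEE added for 2 h at 25 °C, EDTA stop. Released ammonia detected by o-phthalaldehyde/DTT fluorescence (ex 405, em 535 nm).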

[1] = human PAD4, BAEE substrate, 5 nM PAD4, 2 mM calcium chloride, 3 mM BAEE
[2] = recombinant PAD4 5 nM, 2 mM calcium chloride, 3 mM BAEE substrate

human PAD4, sequence (Q9UM07 2-663): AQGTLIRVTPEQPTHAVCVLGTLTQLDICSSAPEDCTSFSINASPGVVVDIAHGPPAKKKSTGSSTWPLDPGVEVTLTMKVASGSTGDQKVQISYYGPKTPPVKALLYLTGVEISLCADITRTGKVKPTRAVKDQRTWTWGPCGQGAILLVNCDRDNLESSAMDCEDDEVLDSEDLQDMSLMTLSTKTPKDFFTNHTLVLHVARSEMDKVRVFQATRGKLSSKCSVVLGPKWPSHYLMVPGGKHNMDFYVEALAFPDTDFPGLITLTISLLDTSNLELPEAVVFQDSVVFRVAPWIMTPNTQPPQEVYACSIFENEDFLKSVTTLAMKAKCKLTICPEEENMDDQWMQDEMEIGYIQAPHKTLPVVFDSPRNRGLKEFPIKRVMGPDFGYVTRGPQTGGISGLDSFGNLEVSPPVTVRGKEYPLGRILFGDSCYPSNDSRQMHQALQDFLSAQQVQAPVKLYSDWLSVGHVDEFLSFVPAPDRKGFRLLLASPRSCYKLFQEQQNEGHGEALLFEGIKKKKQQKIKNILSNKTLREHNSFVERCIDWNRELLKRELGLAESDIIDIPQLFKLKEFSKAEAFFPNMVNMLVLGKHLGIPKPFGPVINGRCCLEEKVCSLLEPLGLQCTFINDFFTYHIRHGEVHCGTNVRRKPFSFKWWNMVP

Row | SMILES | IC50 [1] [nM] | IC50 [2] [nM]
1 | COc1cc(C(=O)N2CCC[C@@H](N)C2)cc2nc(-c3cc4ccc([C@@H](C)NC(=O)C56CC(F)(C5)C6)nc4n3CC3CC3)n(C3CC3)c12 [Example 125, N-((R)-1-(2-(5-((R)-3-aminopiperidine-1-carbonyl)-1-cyclopropyl-7-methoxy-1H-benzo[d]imidazol-2-yl)-1-(cyclopropylmethyl)-1H-pyrrolo[2,3-b]pyridin-6-yl)ethyl)-3-fluorobicyclo[1.1.1]pentane-1-carboxamide] | 71.3 | –
2 | C[C@@H](NC(=O)c1cnn(C2CC2)c1)c1ccc2cc(-c3nc4cc(C(=O)N5C[C@H](N)[C@@H]6CC[C@H]5C6)cc(F)c4n3C3CC3)n(CC3CC3)c2n1 [Example 231, N-((R)-1-(2-(5-((1S,4R,5R)-4-amino-2-azabicyclo[3.2.1]octane-2-carbonyl)-1-cyclopropyl-7-fluoro-1H-benzo[d]imidazol-2-yl)-1-(cyclopropylmethyl)-1H-pyrrolo[2,3-b]pyridin-6-yl)ethyl)-1-cyclopropyl-1H-pyrazole-4-carboxamide] | – | 55.9
3 | CCN(c1ccc2cc(-c3nc4cc(C(=O)N5CCC[C@@H](N)[C@H]5C)cc(OC)c4n3C3CC3)n(CC3CC3)c2n1)S(C)(=O)=O [Example 35, N-(2-(5-((2R,3R)-3-amino-2-methylpiperidine-1-carbonyl)-1-cyclopropyl-7-methoxy-1H-benzo[d]imidazol-2-yl)-1-(cyclopropylmethyl)-1H-pyrrolo [2,3-b]pyridin-6-yl)-N-ethylmethanesulfonamide] | 141 | –
4 | COc1cc(C(=O)N2C[C@@H]3CC[C@@](N)(C3)C2)cc2nc(-c3cc4ccc(N(C(F)F)S(C)(=O)=O)nc4n3CC3CC3)n(C)c12 [Example 61, N-(2-(5-((1R,5R)-1-amino-3-azabicyclo[3.2.1]octane-3-carbonyl)-7-methoxy-1-methyl-1H-benzo[d]imidazol-2-yl)-1-(cyclopropylmethyl)-1H-pyrrolo[2,3-b]pyridin-6-yl)-N-(difluoromethyl) methanesulfonamide] | 36800 | –
5 | COc1cc(C(=O)N2CC3(CCCCN3)C2)cc2nc(-c3cc4ccc(N(C(F)F)S(C)(=O)=O)nc4n3CC3CC3)n(C)c12 [Example 76, N-(1-(cyclopropylmethyl)-2-(7-methoxy-1-methyl-5-(2,5-diazaspiro[3.5]nonane-2-carbonyl)-1H-benzo[d]imidazol-2-yl)-1H-pyrrolo[2,3-b]pyridin-6-yl)-N-(difluoromethyl) methanesulfonamide] | 50000 | –
6 | COc1cc(C(=O)N2[C@H]3CC[C@@H]2[C@H](N)C3)cc2nc(-c3cc4ccc([C@@H](C)NC(=O)[C@@H]5CC5(F)F)nc4n3CC3CC3)n(C)c12 [Example 202, (S)-N-((R)-1-(2-(5-((1R,2R,4S)-2-amino-7-azabicyclo[2.2.1]heptane-7-carbonyl)-7-methoxy-1-methyl-1H-benzo[d]imidazol-2-yl)-1-(cyclopropylmethyl)-1H-pyrrolo[2,3-b]pyridin-6-yl)ethyl)-2,2-difluorocyclopropane-1-carboxamide] | 58.7 | –
7 | COc1cc(C(=O)N2CCC[C@@H](N)C2)cc2nc(-c3cc4ccc(N(C5CC5)S(=O)(=O)C5CC5)nc4n3CC3CC3)n(C)c12 [Example 26, (R)-N-(2-(5-(3-aminopiperidine-1-carbonyl)-7-methoxy-1-methyl-1H-benzo[d]imidazol-2-yl)-1-(cyclopropylmethyl)-1H-pyrrolo [2,3-b]pyridin-6-yl)-N-cyclopropylcyclo-propanesulfonamide] | 106 | –
8 | COc1cc(C(=O)N2C[C@H](N)CCN2C)cc2nc(-c3cc4ccc([C@@H](C)NC(=O)C5(CF)CC5)nc4n3CC3CC3)n(C)c12 [Example 190, N-((R)-1-(2-(5-((R)-5-amino-2-methylhexahydropyridazine-1-carbonyl)-7-methoxy-1-methyl-1H-benzo[d]imidazol-2-yl)-1-(cyclopropylmethyl)-1H-pyrrolo[2,3-b]pyridin-6-yl)ethyl)-1-(fluoromethyl)cyclopropane-1-carboxamide] | 89.7 | –
9 | COc1cc(C(=O)N2C[C@H](N)[C@@H]3CC[C@H]2C3)cc2nc(-c3cc4ccc([C@@H](C)NC(=O)c5ccccc5OC(F)(F)F)nc4n3CC3CC3)n(C)c12 [Example 294, N-((R)-1-(2-(5-((1S,4R,5R)-4-amino-2-azabicyclo [3.2.1]octane-2-carbonyl)-7-methoxy-1-methyl-1H-benzo[d]imidazol-2-yl)-1-(cyclopropylmethyl)-1H-pyrrolo[2,3-b]pyridin-6-yl)ethyl)-2-(trifluoromethoxy)benzamide] | – | 277
10 | C[C@H]1CCCS(=O)(=O)N1c1ccc2cc(-c3nc4cc(C(=O)N5C[C@H]6CC[C@@H]5[C@@H]6N)ccc4n3C3CC3)n(CC3CC3)c2n1 [Example 100, ((1R,4R,7R)-7-amino-2-azabicyclo[2.2.1]heptan-2-yl) (1-cyclopropyl-2-(1-(cyclopropylmethyl)-6-((S)-3-methyl-1,1-dioxido-1,2-thiazinan-2-yl)-1H-pyrrolo[2,3-b]pyridin-2-yl)-1H-benzo[d]imidazol-5-yl)methanone] | 55.5 | –
11 | COc1cc(C(=O)N2C[C@H](N)CCN2C)cc2nc(-c3cc4ccc(C(C)(C)NC(=O)c5ccccc5)nc4n3CC3CC3)n(C)c12 [Example 209] | 199 | –
12 | COc1cc(C(=O)N2C[C@H](N)CCN2C)cc2nc(-c3cc4ccc([C@@H](C)NC(=O)c5ccccc5C(F)(F)F)nc4n3CC3CC3)n(C)c12 [Example 196, N-((R)-1-(2-(5-((R)-5-amino-2-methylhexahydropyridazine-1-carbonyl)-7-methoxy-1-methyl-1H-benzo[d]imidazol-2-yl)-1-(cyclopropylmethyl)-1H-pyrrolo[2,3-b]pyridin-6-yl)ethyl)-2-(trifluoromethyl)benzamide] | 129 | –
13 | COc1cc(C(=O)N2[C@H]3CC[C@@H]2[C@H](N)C3)cc2nc(-c3cc4ccc([C@@H](C)NC(=O)C(C)n5cccn5)nc4n3CC3CC3)n(C)c12 (stereo partly drawn) [Example 211, N-((R)-1-(2-(5-((1R,2R,4S)-2-amino-7-azabicyclo[2.2.1]heptane-7-carbonyl)-7-methoxy-1-methyl-1H-benzo[d]imidazol-2-yl)-1-(cyclopropylmethyl)-1H-pyrrolo[2,3-b]pyridin-6-yl)ethyl)-2-(1H-pyrazol-1-yl)propanamide] | 92 | –
14 | CS(=O)(=O)N(c1ccc2cc(-c3nc4cc(C(=O)N5C[C@H]6CC[C@@H]5[C@@H]6N)ccc4n3C3CC3)n(CC3CC3)c2n1)C(F)F [Example 55, N-(2-(5-((1R,4R,7R)-7-amino-2-azabicyclo[2.2.1]heptane-2-carbonyl)-1-cyclopropyl-1H-benzo[d]imidazol-2-yl)-1-(cyclopropylmethyl)-1H-pyrrolo[2,3-b]pyridin-6-yl)-N-(difluoromethyl) methanesulfonamide] | 89.6 | –
15 | COc1cc(C(=O)N2CCC[C@@H](N)C2)cc2nc(-c3cc4ccc([C@@H](C)NC(=O)C(C)(C)C)nc4n3CC3CC3)n(C)c12 [Example 119, N-((R)-1-(2-(5-((R)-3-aminopiperidine-1-carbonyl)-7-methoxy-1-methyl-1H-benzo[d]imidazol-2-yl)-1-(cyclopropylmethyl)-1H-pyrrolo[2,3-b]pyridin-6-yl)ethyl)pivalamide] | 78.4 | –
